Assay results taken from patent publication US20230066011A1, “PYRROLOPYRIMIDINE DERIVATIVE, AND PHARMACEUTICAL COMPOSITION FOR PREVENTING OR TREATING PROTEIN KINASE-RELATED DISEASE COMPRISING SAME AS ACTIVE INGREDIENT” (VORONOI CO., LTD., priority 2019, published 2023).

Columns and labels:
MDA-MB-231 cell line = experiment: Inhibition of proliferation of MDA-MB-231 cancer cells (Cell Titer-Glo); assay type: cell-based; conditions: Homo sapiens, 72 hours
Summary of the method: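 GI50 values derive from Cell Titer-Glo luminescence, measured after a 10-minute room-temperature incubation with the reagent. Before that, cells plated at 2,000 per well in DMEM or RPMI medium were treated for 72 h with compound at 11 final concentrations spanning 10 μM down to 0.000169 μM in threefold steps.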

human GST-DYRK1A = biological target: T1, human GST-DYRK1A (Homo sapiens, UniProt Q13627); experiment: GST-DYRK1A enzyme inhibition, ADP-Glo kinase assay; assay type: biochemical; conditions: ATP 10 μM, GST-DYRK1A full length, read-out: DYRK1 IC50
T1 construct: purified human GST-DYRK1A (full length, Thermo Scientifics) enzyme; purchased Thermo Scientifics
Summary of the method: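 Full-length human GST-DYRK1A (10 ng) with 10 μM ATP and specific substrate in 40 mM Tris-HCl pH 7.4, 20 mM MgCl2, 0.5 mg/mL BSA, 50 μM DTT, 1 h at 25 °C. ADP formation read by ADP-Glo luminescence relative to solvent control; IC50 from three data sets.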

TNF-α = experiment: Inhibition of LPS-induced TNF-α secretion of THP-1 monocytes (ELISA); assay type: cell-based, human; conditions: Homo sapiens, THP-1; compound 0.5 μM, LPS 500 ng/mL, 24 hours; read-out: THP-1/TNF-α (% inhib)
Summary of the method: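 THP-1 monocytes grown 16 h at 37 °C, pretreated 1 h with compound at final 0.5 μM, then stimulated with LPS at final 500 ng/mL for 24 h. IL-6 and TNF-α in culture supernatant measured by ELISA (OD 450 nm).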

Row | Compound | GI50 (MDA-MB-231 cell line) [nM] | IC50 (human GST-DYRK1A) [nM] | inhibition at 0.5 µM (TNF-α) [%]
1 | N#Cc1c[nH]c2nc(Nc3ccc(C(=O)N4CCOCC4)c4c3OCCO4)nc(NCC3CCCC3)c12 [Example 133, 4-((cyclopentylmethyl)amino)-2-((8-(morpholine-4-carbonyl)-2,3-dihydrobenzo[b][1,4]dioxin-5-yl)amino)-7H-pyrrolo[2,3-d]pyrimidine-5-carbonitrile] | 101 to 300 | 301 to 1000 | 
2 | CCCNc1nc(Nc2ccc(C(=O)N3CCC(N4CCOCC4)CC3)c3c2OCCO3)nc2[nH]cc(C#N)c12 [Example 138, 2-((8-(4-morpholinopiperidine-1-carbonyl)-2,3-dihydrobenzo[b][1,4]dioxin-5-yl)amino)-4-(propylamino)-7H-pyrrolo[2,3-d]pyrimidine-5-carbonitrile] |  | 101 to 300 | 
3 | CNc1nc(Nc2ccc(C(=O)N3CCC(N4CCOCC4)CC3)c3c2OCC3)nc2[nH]cc(C(F)(F)F)c12 [Example 217, (7-((4-(methylamino)-5-(trifluoromethyl)-7H-pyrrolo[2,3-d]pyrimidin-2-yl)amino)-2,3-dihydrobenzofuran-4-yl)(4-morpholinopiperidin-1-yl)methanone] |  | < 100 | 
4 | N#Cc1c[nH]c2nc(Nc3ccc(C(=O)N4CCC(N5CCOCC5)CC4)c4c3OCCO4)nc(C3CC3)c12 [Example 221, 4-cyclopropyl-2-((8-(4-morpholinopiperidine-1-carbonyl)-2,3-dihydrobenzo[b][1,4]dioxin-5-yl)amino)-7H-pyrrolo[2,3-d]pyrimidine-5-carbonitrile] |  | < 100 | 
5 | COc1cc(S(=O)(=O)N2CCOCC2)ccc1Nc1nc(C2CC2)c2c(C#N)c[nH]c2n1 [Example 223, 4-cyclopropyl-2-((2-methoxy-4-(morpholinosulfonyl)phenyl)amino)-7H-pyrrolo[2,3-d]pyrimidine-5-carbonitrile] | 301 to 1000 |  | 
6 | COc1cc(S(=O)(=O)N2CCC(N3CCOCC3)CC2)ccc1Nc1nc(C2CC2)c2c(C(F)(F)F)c[nH]c2n1 [Example 226] | 301 to 1000 |  | 
7 | CNc1nc(Nc2cc(F)c(S(=O)(=O)N3CCC(N4CCOCC4)CC3)cc2OC)nc2[nH]cc(C(F)(F)F)c12 [Example 231, N^2-(5-fluoro-2-methoxy-4-((4-morpholinopiperidin-1-yl)sulfonyl)phenyl)-N^4-methyl-5-(trifluoromethyl)-7H-pyrrolo[2,3-d]pyrimidine-2,4-diamine] | 101 to 300 | 101 to 300 | 
8 | CCNc1nc(Nc2cc(F)c(S(=O)(=O)N3CCC(N4CCOCC4)CC3)cc2OC)nc2[nH]cc(C(F)(F)F)c12 [Example 232, N^4-ethyl-N^2-(5-fluoro-2-methoxy-4-((4-morpholinopiperidin-1-yl)sulfonyl)phenyl)-5-(trifluoromethyl)-7H-pyrrolo[2,3-d]pyrimidine-2,4-diamine] | 301 to 1000 | 301 to 1000 | 
9 | CNc1nc(Nc2ccc(C(=O)N3CC[C@H](N4CCOCC4)C3)c3c2OCC3)nc2[nH]cc(C(F)(F)F)c12 [Example 236, (S)-(7-((4-(methylamino)-5-(trifluoromethyl)-7H-pyrrolo[2,3-d]pyrimidin-2-yl)amino)-2,3-dihydrobenzofuran-4-yl)(3-morpholinopyrrolidin-1-yl)methanone] |  | < 100 | 13.6
10 | CCNc1nc(Nc2ccc(C(=O)N3CCC(N4CCOCC4)CC3)c3c2OCC3)nc2[nH]cc(C#N)c12 [Example 347, 4-(ethylamino)-2-((4-(4-morpholino-piperidine-1-carbonyl)-2,3-dihydro-benzofuran-7-yl)amino)-7H-pyrrolo[2,3-d]pyrimidine-5-carbonitrile] |  | < 100 | 13.3
11 | CNc1nc(Nc2ccc(C(=O)N3CCN(C4COC4)CC3)c3c2OCCO3)nc2[nH]cc(C(F)(F)F)c12 [Example 397, (8-((4-(methylamino)-5-(trifluoromethyl)-7H-pyrrolo[2,3-d]pyrimidin-2-yl)amino)-2,3-dihydrobenzo[b] [1,4]dioxin-5-yl) (4-(oxetan-3-yl)piperazin-1-yl)methanone] |  | 101 to 300 | 5.6
12 | CCNc1nc(Nc2ccc(C(=O)N3CCN(C4COC4)CC3)c3c2OCCO3)nc2[nH]cc(C(F)(F)F)c12 [Example 400, (8-((4-(ethylamino)-5-(trifluoromethyl)-7H-pyrrolo[2,3-d]pyrimidin-2-yl)amino)-2,3-dihydrobenzo[b] [1,4]dioxin-5-yl) (4-(oxetan-3-yl)piperazin-1-yl)methanone] |  | < 100 | 1
13 | COCCNc1nc(Nc2ccc(C(=O)N3CCN(C4COC4)CC3)c3c2OCCO3)nc2[nH]cc(C(F)(F)F)c12 [Example 403, (8-((4-((2-methoxyethyl)-amino)-5-(trifluoromethyl)-7H-pyrrolo[2,3-d]pyrimidin-2-yl)amino)-2,3-dihydrobenzo[b] [1,4]dioxin-5-yl) (4-(oxetan-3-yl)piperazin-1-yl)methanone] |  | < 100 | 40.4
14 | O=C(c1ccc(Nc2nc(NC3CC3)c3c(C(F)(F)F)c[nH]c3n2)c2c1OCCO2)N1CCN(C2COC2)CC1 [Example 405, (8-((4-(cyclo-propylamino)-5-(trifluoromethyl)-7H-pyrrolo[2,3-d]pyrimidin-2-yl)amino)-2,3-dihydrobenzo[b] [1,4]dioxin-5-yl) (4-(oxetan-3-yl)piperazin-1-yl)methanone] |  | < 100 | 
15 | O=C(c1ccc(Nc2nc(NC3CCC3)c3c(C(F)(F)F)c[nH]c3n2)c2c1OCCO2)N1CCN(C2COC2)CC1 [Example 407, (8-((4-(cyclo-butylamino)-5-(trifluoromethyl)-7H-pyrrolo[2,3-d]pyrimidin-2-yl)amino)-2,3-dihydrobenzo[b] [1,4]dioxin-5-yl) (4-(oxetan-3-yl)piperazin-1-yl)methanone] |  | < 100 | 5.3
16 | COc1cc(P2(=O)CCN(C3CC3)CC2)ccc1Nc1nc(NC2CCCC2)c2c(C(F)(F)F)c[nH]c2n1 [Example 413] |  | 301 to 1000 | 
17 | O=C(c1ccc(Nc2nc(NC3CCCCC3)c3c(C(F)(F)F)c[nH]c3n2)c2c1OCCO2)N1CCN(C2COC2)CC1 [Example 415, (8-((4-(cyclo-hexylamino)-5-(trifluoromethyl)-7H-pyrrolo[2,3-d]pyrimidin-2-yl)amino)-2,3-dihydrobenzo[b] [1,4]dioxin-5-yl) (4-(oxetan-3-yl)piperazin-1-yl)methanone] |  | 301 to 1000 | 
18 | O=C(c1ccc(Nc2nc(NC3CC3)c3c(C(F)(F)F)c[nH]c3n2)c2c1CCO2)N1CCC(N2CCOCC2)CC1 [Example 434, (7-((4-(cyclopropyl-amino)5-(trifluoromethyl)-7H-pyrrolo[2,3-d]pyrimidin-2-yl)amino)-2,3-dihydrobenzo-furan-4-yl)(4-morpho-linopiperidin-1-yl)methanone] |  | < 100 | 16
19 | COc1cc(P2(=O)CCN(C3CCOCC3)CC2)ccc1Nc1nc(NC2CC2)c2c(C(F)(F)F)c[nH]c2n1 [Example 435, 4-(4-((4-(cyclo-propylamino)-5-(trifluoromethyl)-7H-pyrrolo[2,3-d]pyrimidin-2-yl)amino)-3-methoxyphenyl)-1-(tetrahydro-2H-pyran-4-yl)-1,4-azaphosphinane 4-oxide] |  | < 100 | 6.6
20 | CCNc1nc(Nc2ccc(C(=O)N3CCC(N4CCOCC4)CC3)c3c2OCC3)nc2[nH]cc(C(F)(F)F)c12 [Example 438, (7-((4-(ethylamino)-5-(trifluoromethyl)-7H-pyrrolo[2,3-d]pyrimidin-2-yl)amino)-2,3-dihydrobenzo-furan-4-yl)(4-morpho-linopiperidin-1-yl)methanone] |  | < 100 | 10.8
21 | COCCNc1nc(Nc2ccc(C(=O)N3CCC(N4CCOCC4)CC3)c3c2OCC3)nc2[nH]cc(C(F)(F)F)c12 [Example 443, (7-((4-((2-methoxyethyl)amino)-5-(trifluoromethyl)-7H-pyrrolo[2,3-d]pyrimidin-2-yl)amino)-2,3-dihydrobenzo-furan-4-yl)(4-morpho-linopiperidin-1-yl)methanone] |  | < 100 | 10.8
22 | COCCNc1nc(Nc2ccc(P3(=O)CCN(C4CCOCC4)CC3)cc2OC)nc2[nH]cc(C(F)(F)F)c12 [Example 444, 4-(3-methoxy-4-((4-((2-methoxyethyl)amino)-5-(trifluoromethyl)-7H-pyrrolo[2,3-d]pyrimidin-2-yl)amino)phenyl)-1-(tetrahydro-2H-pyran-4-yl)-1,4-azaphosphinane 4-oxide] |  | < 100 | 14.4
23 | CCCNc1nc(Nc2ccc(C(=O)N3CCC(N4CCOCC4)CC3)c3c2OCC3)nc2[nH]cc(C(F)(F)F)c12 [Example 446, (4-morpholino-piperidin-1-yl)(7-((4-(propylamino)-5-(trifluoromethyl)-7H-pyrrolo[2,3-d]pyrimidin-2-yl)amino)-2,3-dihydrobenzo-furan-4-yl)methanone] |  | < 100 | 22.5
24 | O=C(c1ccc(Nc2nc(NCC3CC3)c3c(C(F)(F)F)c[nH]c3n2)c2c1CCO2)N1CCC(N2CCOCC2)CC1 [Example 461, (7-((4-((cyclo-propylmeth-yl)amino)-5-(trifluoromethyl)-7H-pyrrolo[2,3-d]pyrimidin-2-yl)amino)-2,3-dihydrobenzo-furan-4-yl)(4-morpho-linopiperidin-1-yl)methanone] |  | < 100 | 2.3
